# Literature values as cited in US20200397744A1, “COMPOSITIONS COMPRISING CO-CRYSTALS OF STILBENOIDS AND CANNABINOIDS” (priority 2018, published 2020).
# How the values were obtained:
# [1] = tested on: hyperglycemic rats
# [2] = in vivo
# [3] = tested on: cancer cell lines; details: cancer cell lines in vitro
SMILES,decrease of plasma glucose levels [1],bioavailability [2],cytotoxic activity [3]
CN(C)C(=N)N=C(N)N [metformin],48%,,
"COc1cc(/C=C/c2ccc(O)cc2)cc(OC)c1 [pterostilbene, trans-3,5-dimethoxy-4′-hydroxystilbene]",,poor bioavailability,cytotoxic activity
